Experimental data from the NIST ThermoML archive (doi:10.1016/j.jct.2016.09.041).

Assay: molar heat capacity at constant pressure
Conditions: 101.33 kPa, Crystal 1, Small (less than 1 g) adiabatic calorimetry

N[C@@H](Cc1c[nH]c2ccccc12)C(=O)O [L-tryptophan]
Conditions | molar heat capacity at constant pressure [J/K/mol]
124.29 K | 103.18
125.09 K | 103.85
125.89 K | 104.51
126.7 K | 105.01
127.5 K | 105.51
128.3 K | 106.18
129.1 K | 106.67
129.91 K | 107.26
130 K | 107.26
130.71 K | 107.84
131.51 K | 108.34
132.31 K | 108.75
133.12 K | 109.25
133.92 K | 109.67
134.72 K | 110.5
135.52 K | 111.08
136.33 K | 111.66
137.13 K | 112.16
137.93 K | 112.74
138.74 K | 113.33
139.54 K | 113.83
140 K | 114.16
140.34 K | 114.32
141.14 K | 114.74
141.95 K | 115.49
142.75 K | 116.07
143.55 K | 116.57
144.35 K | 117.23
145.16 K | 117.65
145.96 K | 118.31
146.76 K | 118.73
147.56 K | 119.31
148.37 K | 119.81
149.17 K | 120.64
149.97 K | 121.14
150 K | 121.06
150.77 K | 121.56
151.57 K | 122.22
152.38 K | 122.97
153.18 K | 123.22
153.98 K | 123.64
154.78 K | 124.55
155.58 K | 124.8
156.38 K | 125.55
157.18 K | 126.13
157.98 K | 126.46
158.79 K | 127.46
159.59 K | 127.96
160 K | 128.04
160.39 K | 128.13
161.19 K | 128.96
161.99 K | 129.62
162.79 K | 130.2
163.59 K | 130.79
164.39 K | 131.29
165.19 K | 131.7
166 K | 131.95
166.8 K | 132.7
167.6 K | 133.45
168.39 K | 134.03
169.19 K | 134.61
169.99 K | 135.19
170 K | 135.03
170.79 K | 135.61
171.59 K | 136.19
172.39 K | 136.52
173.19 K | 137.11
173.99 K | 137.6
174.79 K | 138.1
175.59 K | 138.77
176.39 K | 139.18
177.19 K | 140.1
177.99 K | 140.51
178.79 K | 141.01
179.59 K | 141.6
180 K | 141.93
180.38 K | 142.09
181.18 K | 142.68
181.97 K | 143.34
182.76 K | 143.84
183.57 K | 144.59
184.36 K | 144.92
185.16 K | 145.59
185.96 K | 146.17
186.75 K | 146.67
187.55 K | 147.25
188.34 K | 147.67
189.14 K | 148.5
189.93 K | 149.16
190 K | 148.91
190.73 K | 149.58
191.53 K | 149.91
192.32 K | 150.49
193.12 K | 151.07
193.9 K | 151.91
194.7 K | 152.4
195.49 K | 152.82
196.29 K | 153.24
197.08 K | 153.82
197.87 K | 154.4
198.67 K | 155.23
199.46 K | 155.65
200 K | 156.06
200.26 K | 156.31
201.25 K | 156.89
202.45 K | 157.81
203.66 K | 158.64
204.86 K | 159.55
206.06 K | 160.3
207.27 K | 161.3
208.48 K | 162.22
209.68 K | 162.96
210 K | 163.21
210.89 K | 163.88
212.09 K | 164.54
213.3 K | 165.54
214.51 K | 166.21
215.73 K | 166.95
216.93 K | 167.95
218.14 K | 169.28
219.36 K | 170.2
220 K | 170.28
220.57 K | 170.86
221.79 K | 171.61
223 K | 172.77
224.22 K | 173.69
225.43 K | 174.11
226.65 K | 175.1
227.87 K | 176.35
229.09 K | 177.18
230 K | 177.76
230.31 K | 178.01
231.54 K | 179.09
232.76 K | 179.76
233.98 K | 180.59
235.21 K | 181.67
236.43 K | 182.75
237.66 K | 183.67
238.88 K | 184.5
240 K | 185.25
240.11 K | 185.41
241.34 K | 186.24
242.57 K | 187.33
243.8 K | 188.07
245.03 K | 188.74
246.26 K | 190.07
247.5 K | 190.82
248.75 K | 191.98
249.99 K | 192.56
250 K | 192.81
251.23 K | 193.73
252.46 K | 194.81
253.7 K | 195.72
254.94 K | 196.72
256.18 K | 197.63
257.43 K | 198.47
258.67 K | 199.3
259.92 K | 200.3
260 K | 200.38
261.16 K | 201.13
262.41 K | 202.04
263.66 K | 203.04
264.91 K | 204.12
266.17 K | 204.87
267.42 K | 206.03
268.69 K | 207.2
269.95 K | 208.19
270 K | 208.03
271.21 K | 208.86
272.47 K | 210.02
273.73 K | 210.77
274.99 K | 211.6
276.25 K | 212.93
277.51 K | 213.85
278.78 K | 214.51
280 K | 215.76
280.05 K | 215.84
281.32 K | 216.76
282.59 K | 217.42
283.86 K | 218.5
285.13 K | 219.83
286.41 K | 220.17
287.69 K | 221.58
288.96 K | 222.74
290 K | 223.83
290.24 K | 223.49
291.52 K | 224.57
292.8 K | 225.16
294.08 K | 226.4
295.36 K | 227.48
296.65 K | 227.73
297.93 K | 228.9
298.15 K | 228.98
299.23 K | 229.65
300 K | 230.31
300.76 K | 230.56
302.42 K | 231.39
304.07 K | 232.81
305.72 K | 234.22
307.35 K | 235.3
308.99 K | 236.3
310 K | 237.05
310.61 K | 237.38
312.22 K | 239.21
313.83 K | 240.04
315.43 K | 240.54
317.02 K | 241.62
318.6 K | 242.87
320 K | 243.61
320.17 K | 243.78
321.71 K | 244.28
323.27 K | 246.27
324.81 K | 246.94
326.3 K | 247.85
327.82 K | 248.94
329.34 K | 250.02
330 K | 250.52
330.82 K | 251.18
332.31 K | 252.43
333.79 K | 253.51
335.26 K | 254.09
336.72 K | 255.17
338.17 K | 256.67
339.59 K | 256.42
340 K | 258
341.01 K | 258.66
342.42 K | 259.91
343.82 K | 260.91
345.21 K | 262.16
346.6 K | 263.24
347.91 K | 263.9
349.09 K | 265.81
350 K | 265.98
350.43 K | 266.89
351.76 K | 268.06
353.08 K | 269.06
354.39 K | 269.47
355.67 K | 270.14
356.94 K | 271.3
358.2 K | 272.71
359.46 K | 273.55
360 K | 273.71
360.69 K | 274.04
361.93 K | 275.13
363.07 K | 275.87
364.26 K | 276.54
365.45 K | 277.29
366.62 K | 277.95
367.71 K | 277.87
368.55 K | 278.87
369.68 K | 279.87
370 K | 279.62
370.81 K | 278.62
371.9 K | 280.61
372.99 K | 281.53
